The source of these data is patent US20240024255A1 (priority 2022, published 2024).

Marks after values point to notes of the source that are not given here.

The format of series [1] is in vitro ADME. As for the experimental part:
Briefly, 20 mL of the saline solution containing 1 mL plant extracts were acidified to pH 2.0 by adding porcine pepsin preparation (40 mg/mL in 0.1 M HCl) and allowed for gastric digestion at 37° C. in a shaker incubator. After 1 h, the pH of the solution was adjusted to 5.3 using 0.9 M NaHCO3 solution. To this added 200 μL of bovine and porcine bile extract solution (100 mg/mL in saline), and 100 μL of pancreatin solution (80 mg/mL in saline). The pH was readjusted to 7.5 using 1 M NaOH followed by incubation at 37° C. for 2 h to accomplish the intestinal digestion phase. Aliquots of samples before and after digestion were centrifuged at 5000 g; upper phase used for anti-lipase and antioxidant assays. The samples were further used for HPLC analysis to determine the bioavailability.
HPLC analysis of the samples before and after gastrointestinal digestion was performed following the in-house validated chromatographic conditions using a Shimadzu LC2030 C Prominence-i (Japan) system equipped with a high sensitivity LC2030 ultraviolet (UV) detector and LabSolutions software.

On the set-up of series [2]: species or system Wistar rats. To be noted: rat, in vivo, po, 1000 mg/kg. As for the experimental part: Twelve healthy male Wistar rats aged 10-12-week-old (250-300 g) were used for the bioavailability study. The animals were procured from Biogen Laboratory Animal Facility, Bangalore, India (Reg No. 971/PO/RcBiBt/S/06/CPCSEA). All the animals were housed in air-conditioned room under temperature (22±3° C.) and humidity (30-70%) controlled environment. The rats were fed standard rodent diet and water ad libitum. The animal experimentation protocol was approved by the Institutional Animal Ethics Committee (IAEC) of Vidya Herbs Pvt Ltd., Bangalore, India (VHPL/PCL/IAEC/02/2021).
After 7-day acclimatization, the animals were fasted overnight prior to the experiment, with free access to water. […] The sample size was determined by power analysis (Festing and Altman, 2002) using the formula,
The extracts were formulated in a mixture of Cremaphor, Tween 80, ethanol, and water. The extracts were administered by oral gavage at a single dose of 1000 mg/kg. The animals were anesthetised in anaesthesia chamber supplied with 2% gaseous isoflurane. Blood samples were collected from tail vein at 0.25, 0.5, 1, 2, 4, 8, 12 and 24 h after oral administration of extracts. The blood samples collected in heparinized tubes were centrifuged at 3000 rpm for 10 min. The plasma samples were stored at −20° C. for further analysis. […]

In series [3] the test system is carrageenan-induced paw edema. The series can be described thus: Carrageenan-induced acute inflammatory model (paw edema). The class given is in vivo, Wistar rats. The conditions noted are these: Indomethacin 10 mg/kg.bw. As for the experimental part: Wistar rats were randomly allotted into six groups (n=6) and kept for 7-day acclimatization. Group 1 was treated as control, group 2 received indomethacin 10 mg/kg.bw. […] All animal studies have been carried out by following the animal ethical guidelines and regulation of Institutional Animal Ethics Committee of Vidya Herbs Pvt. Ltd. Bangalore. India. with the protocol number VHPL/PCL/IAEC/08/19.
The carrageenan-induced paw edema test was performed in accordance with the method 17 with some modifications. Drugs were administered to all the respective groups. One hour later, the animals were injected with 0.01 mL of 1% (w/v) freshly prepared carrageenan solution into the right-hind paw sub plantar injection. Paw thickness and volume were measured after 30 min, 1, 2, 4, and 24 h after carrageenan injection using Vernier callipers and Plethysmometer, respectively. The percentage inhibition of inflammation was calculated.
Data were analyzed using one-way analysis of variance (ANOVA) with Duncan multiple range test for means ±standard error, where *P<0.001 was considered to indicate statistically significant difference between groups. All the experimental data were derived from three independent experiments.

In series [4] the target is Monoamine oxidase-B (MAO-B). The series can be described thus: MAO-B inhibition assay (rat liver homogenate). The class given is biochemical. As for the experimental part: The rat liver tissues were quickly removed to wash in ice-cold potassium phosphate buffer (0.2 M, pH 7.6), and stored at −80° C. 5 g of liver tissue was homogenized (1:20, w/v) in 0.3 M sucrose at 4° C. and centrifuged at 2000×g for 10 min. The supernatant was further centrifuged at 12000×g for 25 min. The resulting pellet suspended in minimal volume in 0.3 M sucrose and overlay on 1.3 M sucrose and centrifuge at 12000×g (40 min) to obtain a crude mitochondrial pellet. The pellet was resuspended in 2 mL 0.2 M phosphate buffer (pH 7.6) used as MAO-B enzyme source. Total protein concentration was measured by the method of Bradford and adjusted with buffer (0.2 M; pH 7.6) to 0.5 mg protein per ml (stock solution) and stored at −80° C. in aliquots until required.
The assay was carried out in 96-well microplates according to the process modified by Holt' et al. (1997). […] Paragyline was used as the standard inhibitor.

With `O=C(/C=C/c1ccc(O)cc1)CC(=O)/C=C/c1ccc(O)cc1` [BDMC, bisdemethoxycurcumin], in series [1], the “bioavailability with respect to undigested sample” value was “considerably higher” and the “concentration in the samples at different digestive phases” value is “remained unchanged”. In addition, the AUC0-Last entry in series [2] is given as “markedly increased”.
With `COc1ccc2c(c1)c(CC(=O)O)c(C)n2C(=O)c1ccc(Cl)cc1` [Indomethacin], the Paw thickness in series [3] (0 h) is listed as 2.41 ± 0.12 mm; in series [3] (0.5 h), 3.18 ± 0.09*** mm; in series [3] (1 h) it was 3.73 ± 0.07*** mm; in series [3] (2 h), 3.12 ± 0.11*** mm; in series [3] (4 h) it was 2.67 ± 0.09*** mm; in series [3] (24 h) it was 2.43 ± 0.10*** mm. The Paw volume in series [3] (0 h) was 1.12 ± 0.04 mL; in series [3] (0.5 h) it was 1.32 ± 0.04** mL; in series [3] (1 h), 1.57 ± 0.08*** mL; in series [3] (2 h) it was 1.47 ± 0.06*** mL; in series [3] (4 h), 1.37 ± 0.03*** mL; in series [3] (24 h) it was 1.16 ± 0.05*** mL.
With `C#CCN(C)Cc1ccccc1` [paragyline], the “MAO-B IC-50” value in series [4] worked out at 6.5 µg/mL.
